Holding throughout (test): NCI-60 cell line screen, 48 h
The subject of experiment [1] is ACHN.
Experiment [2] has as its system DU-145.
Experiment [3] has as its system EKVX.
Experiment [4] concerns HCC 2998.
In experiment [5] the test system is HCT-15.
In experiment [6] the test system is IGROV-1.
Experiment [7] concerns K562.
Experiment [8] concerns LOX IMVI.
Experiment [9] has as its system MDA-N.
The subject of experiment [10] is MOLT-4.
The test system of experiment [11] is Malme-3M.
For experiment [12], the system named is NCI/ADR-RES.
In experiment [13] the test system is OVCAR-4.
In experiment [14] the test system is SK-MEL-28.
Experiment [15] has as its system T47D.
Experiment [16] deals with UACC-257.
For experiment [17], the system named is TK-10.
In experiment [18] the test system is A498.
The subject of experiment [19] is BT-549.

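Following 48 hours of exposure in 96-well plates, responses at five concentrations were used to interpolate endpoints linearly. GI50: concentration for 50% inhibition of growth.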 Activity calls are given as the source filed them. Rule as the data show it: active = GI50 up to about 1.1 µM and inactive = higher.

Regarding `CCOC(=O)C(NC(=O)CC)(Nc1ccc(S(=O)(=O)Nc2ncccn2)cc1)C(F)(F)F` (configuration not stated), the GI50 in [1] was > 100 µM (inactive); in [2] it was > 100 µM (inactive); in [3] it was > 100 µM (inactive); in [4], > 100 µM (inactive); in [5] it was > 100 µM; in experiment [6], > 100 µM (inactive). Moreover, the GI50 in experiment [7], in experiment [8], in experiment [9], in experiment [10], in [11] and in experiment [12] was > 100 µM (inactive) throughout. Moreover, the GI50 in experiment [13], in experiment [14], in experiment [15] and in [16] was > 100 µM (inactive) throughout.
Take `O=S1(=O)[C@H](c2ccccc2)c2c(-c3ccccc3)sc(-c3ccccc3)c2[C@@H]1c1ccccc1`: the GI50 is > 100 µM (inactive) in experiment [1]; > 100 µM (inactive) in [3]; > 100 µM (inactive) in experiment [4]; > 100 µM in experiment [5]; > 100 µM (inactive) in [6]; > 100 µM (inactive) in experiment [7]. Besides, the GI50 in experiment [8] was 58.5 µM (inactive); in experiment [10], > 100 µM (inactive); in experiment [11], 94.2 µM (inactive); in experiment [13], 48.1 µM (inactive); in experiment [14], > 100 µM (inactive); in experiment [17], > 100 µM (inactive). Besides, the GI50 in experiment [16] is > 100 µM (inactive).
`CCOC(=O)C1=C(C)N(Cc2ccccc2)C2(O)C=CC(=O)C3C(=O)N(c4ccccc4)C(=O)C132` (configuration not stated): the GI50 in experiment [18] is 14.5 µM (inactive); in [1], 1.63 µM (inactive); in experiment [2], 2.15 µM (inactive); in [3], 10.3 µM (inactive); in experiment [4], 1.67 µM (inactive); in [5] it was 1.79 µM. The GI50 in [6] is 2 µM (inactive); in [7], 3.66 µM (inactive); in [8], 1.36 µM (inactive); in [9], 3.61 µM (inactive); in [10] it was 2.11 µM (inactive); in experiment [11] it was 2.81 µM (inactive). Further, the GI50 in experiment [12] was 2.75 µM (inactive); in experiment [13] it was 1.98 µM (inactive); in [14], 1.82 µM (inactive); in [15] it was 2.42 µM (inactive); in [17], 3.44 µM (inactive); in experiment [16], 2.04 µM (inactive).
For the molecule `COc1ccc(-c2oc(/C=N/NC(N)=S)c([N+](=O)[O-])c2-c2ccc(OC)c(OC)c2)cc1OC`, the GI50 in experiment [1] is 18.5 µM (inactive); in [3], 22.8 µM (inactive); in [5], 29.4 µM; in experiment [6], 28.3 µM (inactive); in [7], > 10 µM (inactive); in experiment [8] it was 15.9 µM (inactive). In addition, the GI50 in experiment [11] is 17.3 µM (inactive); in [13], 21.7 µM (inactive); in experiment [14], 23.9 µM (inactive); in experiment [17] it was 34 µM (inactive); in [16], 31.8 µM (inactive).
Regarding `N=C(N)N/N=C/c1oc(-c2ccc(S(=O)(=O)O)o2)c(-c2ccc(S(=O)(=O)O)o2)c1[N+](=O)[O-]`, the GI50 in [18] was > 100 µM (inactive); in experiment [1], > 100 µM (inactive); in experiment [3], > 100 µM (inactive); in experiment [4], > 100 µM (inactive); in experiment [5], > 100 µM; in [6], > 100 µM (inactive). Besides, the GI50 in [7], in [8], in experiment [10], in experiment [11], in experiment [13] and in experiment [14] was > 100 µM (inactive) in each case. Besides, the GI50 in [17] and in experiment [16] was > 100 µM (inactive) in each case.
In the case of `COc1ccc(OC)c(N(CN2C(=O)CCC2C(=O)O)C(C)=O)c1` (configuration not stated), the GI50 in experiment [18] is > 100 µM (inactive); in experiment [1] it was > 100 µM (inactive); in [2] it was > 100 µM (inactive); in experiment [3] it was > 100 µM (inactive); in experiment [5], > 100 µM; in experiment [6] it was > 100 µM (inactive). Moreover, the GI50 in experiment [7], in [8], in experiment [9], in experiment [10], in experiment [11] and in experiment [12] was > 100 µM (inactive) in each case. For the same molecule, the GI50 in [13], in [14], in [15], in experiment [17] and in experiment [16] was > 100 µM (inactive) in each case.
For the molecule `O=C(O)c1ccc(Nc2nc3ccc(C(F)(F)F)cc3nc2C(=O)O)cc1`, the GI50 in experiment [1] was > 100 µM (inactive); in [2], > 100 µM (inactive); in [3], > 100 µM (inactive); in experiment [4] it was > 100 µM (inactive); in experiment [5] it was > 100 µM; in [6] it was > 100 µM (inactive). The GI50 in experiment [7], in [8], in experiment [9], in experiment [10], in [11] and in experiment [12] was > 100 µM (inactive) each time. For the same molecule, the GI50 in [13], in experiment [14], in experiment [15], in [17] and in experiment [16] was > 100 µM (inactive) in each case.
Consider `[O-][N+]1=C(c2ccccc2)/C(=C2/C(c3ccccc3)=[N+]([O-])c3ccccc32)Cc2ccccc21`, for which the GI50 is 5.52 µM (inactive) in experiment [18]; 20.9 µM (inactive) in [1]; 22 µM (inactive) in [2]; 20.4 µM (inactive) in experiment [3]; 13.9 µM (inactive) in experiment [4]; 16.9 µM in experiment [5]. The GI50 was 16.4 µM (inactive) in [6]; 19.1 µM (inactive) in [7]; 16.7 µM (inactive) in experiment [8]; 17.1 µM (inactive) in experiment [9]; 22.8 µM (inactive) in experiment [10]; 21.3 µM (inactive) in experiment [11]. The GI50 is 15.7 µM (inactive) in experiment [12]; 13.8 µM (inactive) in experiment [13]; 22.3 µM (inactive) in [14]; 16.3 µM (inactive) in experiment [15]; 18.2 µM (inactive) in [17]; 18.3 µM (inactive) in [16].
As for `COC[C@@H](/N=C/c1ccc([N+](=O)[O-])cc1)C(C)C`, the GI50 in experiment [1] was > 100 µM (inactive); in experiment [2], > 100 µM (inactive); in experiment [3], > 100 µM (inactive); in [5], > 100 µM; in experiment [6] it was > 100 µM (inactive); in experiment [7], 34.1 µM (inactive). In addition, the GI50 in experiment [8] was 52.7 µM (inactive); in experiment [9], 29.4 µM (inactive); in [10] it was 42.2 µM (inactive); in [11] it was > 100 µM (inactive); in experiment [12] it was > 100 µM (inactive); in [13], > 100 µM (inactive). The GI50 in experiment [14], in experiment [17] and in experiment [16] was > 100 µM (inactive) each time.
Regarding `S=c1nc(Nc2ccc(Cl)cc2)c2c3c(sc2[nH]1)CCCC3`, the GI50 was > 100 µM (inactive) in [18]; 74.5 µM (inactive) in experiment [1]; > 100 µM (inactive) in [19]; > 100 µM (inactive) in [2]; > 100 µM (inactive) in experiment [3]; 43.4 µM (inactive) in [4]. For the same molecule, the GI50 in experiment [5] was > 100 µM; in experiment [6] it was > 100 µM (inactive); in [7], 38.5 µM (inactive); in experiment [8] it was > 100 µM (inactive); in experiment [9] it was > 100 µM (inactive); in experiment [10], 64.7 µM (inactive). For the same molecule, the GI50 in [11], in experiment [13], in [14], in experiment [17] and in experiment [16] was > 100 µM (inactive) each time.
With `CCCCCc1c(Cl)nc(Cl)nc1Cl`, the GI50 in experiment [18] is 20.1 µM (inactive); in experiment [1], 21 µM (inactive); in experiment [2], 21.7 µM (inactive); in experiment [3], 22.5 µM (inactive); in [4], 11.1 µM (inactive); in [5], 6.17 µM. Besides, the GI50 in [6] was 7.05 µM (inactive); in experiment [7], 2.18 µM (inactive); in [8], 0.471 µM (active); in experiment [9], 4.95 µM (inactive); in experiment [10] it was 0.303 µM (active); in [11] it was 2.59 µM (inactive). The GI50 in [12] was 12.1 µM (inactive); in experiment [13], 16.1 µM (inactive); in experiment [14], 16.5 µM (inactive); in experiment [15] it was 19.4 µM (inactive); in [17] it was 12.1 µM (inactive); in [16], 13.9 µM (inactive).
Regarding `CCOC(=O)C(C(=O)OCC)C(NC(=O)Nc1cc(C(F)(F)F)ccc1OC)(C(F)(F)F)C(F)(F)F`, the GI50 in experiment [18] is 16.5 µM (inactive); in experiment [1] it was 29.1 µM (inactive); in experiment [2], 40.3 µM (inactive); in experiment [3], 70.3 µM (inactive); in experiment [4] it was 25.6 µM (inactive); in [5], 45.8 µM. Also, the GI50 is 25.4 µM (inactive) in [6]; 24.2 µM (inactive) in [7]; 29.8 µM (inactive) in experiment [8]; 33.2 µM (inactive) in experiment [9]; 24 µM (inactive) in experiment [10]; 24.5 µM (inactive) in experiment [11]. For the same molecule, the GI50 in experiment [12] was 28.6 µM (inactive); in experiment [13], 23.2 µM (inactive); in experiment [14], 37.5 µM (inactive); in [15], 30.4 µM (inactive); in experiment [17], 59 µM (inactive); in experiment [16], 39.5 µM (inactive).

(Values after ChEMBL document CHEMBL1201862, “PubChem BioAssay data set” (2004).)
